Assay [1] concerns endometriotic 12Z cells. The experiment in a line: Annexin V/PI double staining, flow cytometry. It is filed as cell-based, human. Conditions: 200 µM, 48 h. The method, then:
After treating endometriotic 12Z cells with stilbenes, the phosphatidylserine externalization was measured by Annexin V and PI double staining (Fig. 4A). Examples of the single-cell images from sub-populations: live cells (Annexin V/PI-double negative), early apoptotic cells (Annexin V-positive/PI-negative), late apoptotic cells (Annexin V/PI-double positive), necrotic cells (Annexin V-negative/PI-positive) are presented in Fig. 4B.
Figure 4 Flow cytometry analysis of endometriotic 12Z cells stained with PI and FITC-Annexin V. Cells were treated with resveratrol, pterostilbene, piceatannol, polydatin and their vehicle (0.5% ethanol) for 48 h. Camptothecin was used as a positive control. (A) Representative images of each distinct cellular subset. n = 4; scale bars = 20 μm. (B) Representative flow cytometry dot plots. (C) Summary of FITC-Annexin V and PI stained populations in 12Z cell cultures. […] The results are presented as means ± SD. *p < 0.05, **p < 0.01, ***p < 0.001 compared to vehicle control.
Apoptosis was determined by Annexin V and propidium iodide (PI) double staining with the FITC Annexin V Apoptosis Detection kit (BD Pharmingen, Heidelberg, Germany) by flow cytometry according to the manufacturer's instructions. […] The cells were analyzed with an Amnis™ FlowSight™ flow cytometer (Luminex Corporation, TX, USA). […]

Assay [2] deals with caspases-3/7. As to the kind of experiment: APO-One Homogenous Caspase-3/7 Assay in 12Z cells. It is filed as cell-based, human. On the procedure:
Resveratrol evoked a dose-dependent caspase-3/7 activation in 12Z cells (F = 2467.29, p < 0.0001). […] It was consistent with the results of CASP3 gene expression activation. […] There was a 2.8-fold activation of caspase 3/7 enzymes following treatment with piceatannol at a 200 μM dose, which complies with the CASP3 mRNA expression level.
To quantitate the proteolytic activity of caspase 3 and 7, we performed an assay based on the proteolytic cleavage of the C-terminal side of the aspartate residue in the DEVD peptide substrate by caspase 3/7 and into the fluorescent rhodamine 110. Caspase 3/7 activity was determined using the APO-One Homogenous Caspase-3/7 Assay (Promega Corporation, Wisconsin, USA) following the manufacturer's instructions. The obtained data were normalized to cellular protein content. The total protein was quantified by BCA assay (Pierce® BCA Protein Assay Kit, Thermo Scientific Inc., USA) according to the manufacturer's protocol.

For `COc1cc(C=Cc2ccc(O)cc2)cc(OC)c1` [Pterostilbene, 3,5-dimethoxy-4′-hydroxystilbene], in assay [1], the “treated cells classified as apoptotic cells” value was “approximately 94%”. Also, the figures for the caspase-3/7 activity increase entry in assay [2] (100 µM) and in assay [2] (200 µM) were “modestly activated” and “inhibited their activity”, respectively.
